Values quoted from earlier work, collected in US8148390B2, “Monocyclic anilide spirolactam CGRP receptor antagonists” (Merck, Sharp & Dohme, Corp., priority 2007, dated 2012).
Read-outs that look alike come from different tables or passages of the source. Ends that are not written are not given here.

Tests used:
[1] = tested on: acute attacks of migraine; conditions: clinical trials (Olesen et al. 2004)
[2] = tested on: headache induced by CGRP infusion; conditions: control group (Petersen et al. 2005)
facial blood flow [3] = conditions: marmoset, electrical stimulation of the trigeminal ganglion (Doods et al. 2000)
middle meningeal artery = conditions: rats, electrical stimulation of the dura mater, prior administration (Williamson et al. 1997)
facial blood flow [4] = conditions: rat, trigeminal ganglion stimulation (Escott et al. 1995)

In the case of `NCCCC[C@H](NC(=O)[C@@H](Cc1cc(Br)c(O)c(Br)c1)NC(=O)N1CCC(N2Cc3ccccc3NC2=O)CC1)C(=O)N1CCN(c2ccncc2)CC1` [BIBN4096BS], the “efficacy in treating acute attacks of migraine” value [1] is given as “effective in treating acute attacks of migraine”, the “prevention of headache induced by CGRP infusion” value [2] is given as “able to prevent headache induced by CGRP infusion” and the “effect on increase of facial blood flow” value (facial blood flow [3]) is given as “could be blocked”.

For “CGRP(8-37): a peptide CGRP antagonist; fragment of CGRP that lacks seven N-terminal amino acid residues (VTHRLAGLLSRSGGVVKNNFVPTNVGSKAF; ends and bridges not checked; UniProt P06881 90-119, looked up, fragment)”, the “effect on increase of middle meningeal artery diameter” value (middle meningeal artery) is listed as “blocked” and the “effect on increase of facial blood flow” value (facial blood flow [4]) is listed as “inhibited”.
